In patent publication EP1057829A1, “Novel compounds and pharmaceutical compositions containing the same” (The Jordanian Pharmaceutical Manufacturing and Medical …, priority 1999, dated 2000):

What was measured:
Assay type in all cases: in vivo
[1] = test system: male rats; test: Penile erection of male rats after oral administration, observed for 2 h; settings: for ED50: Rattus norvegicus, 2 h, erectile response, ED50 values significantly different with a 95% confidence interval, read-out: Calculated ED50; for responding rats # / responding rats %: 10 rats tested, penile erection monitored during 2 h
Procedure: The purpose of this study was to compare the biological activity of compound 7a with that of sildenafil. In particular, the respective ED50-value (ED=effective dose), erection episodes and penile erection indices of said compounds in the treatment of male rats were determined. The penile erection index is an established means of determining the erection promoting properties of a substance (see e.g. Ang, H.H., Sim, M.K., Pharm. Sci., 3, 117-119 (1997) and references cited therein).
In these experiments, the compounds 7a and sildenafil were administered to male rats orally. The doses used for both drugs were 0.0781, 0.1562, 0.3125 and 0.625 mg/kg body weight. Sildenafil was dissolved in distilled water, whereas 7a was dissolved in 1% HCl solution (aq). Control animals were administered with the vehicles only, i.e. distilled water or the 1% HCl solution. During the experiments, the rats were placed in glass cages for observation and had access to food and water. During 2 h after administration of the investigated compounds, the penile erection of the rats was monitored.

[2] = test system: rats; test: Preliminary toxicity studies in rats
Procedure: (§1) Moreover, according to preliminary toxicity studies in rats, the compound 7a is tolerated up to a dose of about […] body weight without any detrimental effects. […] Thus, high doses of 7a provide a particularly efficient means for treatment of erectile dysfunction.

[3] = Preliminary toxicity studies in rats; settings: rat, in vivo, read-out: tolerated dose without any detrimental effects
Procedure: as §1

SMILES | ED50 ([1]; male rats) [mg/kg] | responding rats # ([1]; dose 0.0781 mg/kg) | responding rats % ([1]; dose 0.0781 mg/kg) [%] | responding rats # ([1]; dose 0.1562 mg/kg) | responding rats % ([1]; dose 0.1562 mg/kg) [%] | responding rats # ([1]; dose 0.3125 mg/kg) | responding rats % ([1]; dose 0.3125 mg/kg) [%] | responding rats # ([1]; dose 0.6250 mg/kg) | responding rats % ([1]; dose 0.6250 mg/kg) [%] | total number of observed erection episodes ([1]; male rats, 0.0781-0.625 mg/kg, comparison with sildenafil (Fig. 1)) | calculated penile erection indices ([1]; male rats, 0.0781-0.625 mg/kg, comparison with sildenafil (Fig. 2)) | toxicity and side-effects [2] | NOAEL [3] [mg/kg]
CCCc1nn(C)c2c(=O)[nH]c(-c3cc(S(=O)(=O)N4CCN(C)CC4)cc4c3OCC4)nc12 [Compound 7a, 5-[2,3-dihydro-5-(4-methylpiperazin-1-ylsulfonyl)-7-benzofuryl]-1-methyl-3-propyl-6,7-dihydro-1H-pyrazolo[4,3-d]pyrimidin-7-one] | 0.247 | 3 | 30 | 4 | 40 | 4 | 40 | 8 | 80 | superior to sildenafil, especially at higher doses | superior to sildenafil, especially at higher doses | completely nontoxic and free from undesirable side-effects | ~0.35
CCCc1nn(C)c2c(=O)[nH]c(-c3cc(S(=O)(=O)N4CCN(C)CC4)ccc3OCC)nc12 [Sildenafil, sildenafil, reference compound] | 0.284 | 3 | 30 | 3 | 30 | 5 | 50 | 7 | 70 | – | – | – | –
